# Measurements from the supplement of paper PMC11368000.
# How the values were obtained:
# Conditions in all cases: exposure time: 90 min
# 1535 [1] = donor line of iPSC-derived cardiomyocytes; assay: POD (EC05) for increase in beat frequency (positive chronotrope) vs vehicle; higher = less potent (higher point of departure)
# Outline: (§1)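 Cardiomyocytes from human iPSCs of 16 donors spent 14 days in gelatin-coated 384-well plates before 2 h of fluorescent Ca2+ dye loading. They were then held for 90 min at 37 °C at final concentrations of 0.1, 1, 10 and 100 µM containing 0.5% DMSO, and Ca2+ flux was read on a FLIPR Tetra (8 frames/s, 100 s) before and after. Donor-level points of departure were taken from hierarchical Bayesian Hill fits to vehicle-normalised beat frequency, decay-to-rise ratio or peak frequency. For these, a 5% change was the threshold, or a 95% loss for peak frequency.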
# 1368 [2] = donor line of iPSC-derived cardiomyocytes; assay: as above
# Outline: as §1
# 30145 [3] = donor line of iPSC-derived cardiomyocytes; assay: as above
# Outline: as §1
# 1392 [4] = donor line of iPSC-derived cardiomyocytes; assay: as above
# Outline: as §1
# 11235 = donor line of iPSC-derived cardiomyocytes; assay: POD (EC05) for increase in Ca2+ transient decay-to-rise ratio (QT prolongation) vs vehicle; higher = less potent (higher point of departure)
# Outline: as §1
# 1535 [5] = assay: as above
# Outline: as §1
# 1083 = donor line of iPSC-derived cardiomyocytes; assay: as above
# Outline: as §1
# 1368 [6] = assay: as above
# Outline: as §1
# 1531 = donor line of iPSC-derived cardiomyocytes; assay: as above
# Outline: as §1
# 1565 = donor line of iPSC-derived cardiomyocytes; assay: as above
# Outline: as §1
# 1434 = donor line of iPSC-derived cardiomyocytes; assay: as above
# Outline: as §1
# 1518 = donor line of iPSC-derived cardiomyocytes; assay: as above
# Outline: as §1
# 30171 = donor line of iPSC-derived cardiomyocytes; assay: as above
# Outline: as §1
# 1309 = donor line of iPSC-derived cardiomyocytes; assay: as above
# Outline: as §1
# 20032 = donor line of iPSC-derived cardiomyocytes; assay: as above
# Outline: as §1
# 1516 = donor line of iPSC-derived cardiomyocytes; assay: as above
# Outline: as §1
# 1118 = donor line of iPSC-derived cardiomyocytes; assay: as above
# Outline: as §1
# 30145 [7] = assay: as above
# Outline: as §1
# 20084 = donor line of iPSC-derived cardiomyocytes; assay: as above
# Outline: as §1
# 1392 [8] = assay: as above
# Outline: as §1
SMILES,POD vs vehicle 1535 [1],POD vs vehicle 1368 [2],POD vs vehicle 30145 [3],POD vs vehicle 1392 [4],POD vs vehicle 11235,POD vs vehicle 1535 [5],POD vs vehicle 1083,POD vs vehicle 1368 [6],POD vs vehicle 1531,POD vs vehicle 1565,POD vs vehicle 1434,POD vs vehicle 1518,POD vs vehicle 30171,POD vs vehicle 1309,POD vs vehicle 20032,POD vs vehicle 1516,POD vs vehicle 1118,POD vs vehicle 30145 [7],POD vs vehicle 20084,POD vs vehicle 1392 [8]
NC(=O)C(F)(F)C(F)(F)C(F)(F)C(F)(F)C(N)=O [Octafluoroadipamide],> 100 µM,> 100 µM,> 100 µM,> 100 µM,> 100 µM,> 100 µM,> 100 µM,> 100 µM,> 100 µM,> 100 µM,> 100 µM,> 100 µM,> 100 µM,> 100 µM,> 100 µM,> 100 µM,> 100 µM,> 100 µM,> 100 µM,> 100 µM
O=C(O)C(F)(F)C(F)(F)C(F)(F)OC(F)(F)F [Perfluoro(4-methoxybutanoic)_acid],> 100 µM,> 100 µM,> 100 µM,> 100 µM,> 100 µM,> 100 µM,> 100 µM,> 100 µM,> 100 µM,> 100 µM,> 100 µM,> 100 µM,> 100 µM,> 100 µM,> 100 µM,> 100 µM,> 100 µM,> 100 µM,> 100 µM,> 100 µM
O=C(O)C(F)(F)C(F)(F)OC(F)(F)F [Perfluoro-3-methoxypropanoic_acid],> 100 µM,> 100 µM,> 100 µM,> 100 µM,> 100 µM,> 100 µM,> 100 µM,> 100 µM,> 100 µM,> 100 µM,> 100 µM,> 100 µM,> 100 µM,> 100 µM,> 100 µM,> 100 µM,> 100 µM,> 100 µM,> 100 µM,> 100 µM
O=C(O)C(F)(F)C(F)(F)C(F)(F)F [Perfluorobutanoic_acid],> 100 µM,> 100 µM,> 100 µM,> 100 µM,> 100 µM,> 100 µM,> 100 µM,> 100 µM,> 100 µM,> 100 µM,> 100 µM,> 100 µM,> 100 µM,> 100 µM,> 100 µM,> 100 µM,> 100 µM,> 100 µM,> 100 µM,> 100 µM
O=C(O)C(F)(F)C(F)(F)C(F)(F)C(F)(F)C(F)(F)C(F)(F)C(F)(F)C(F)(F)C(F)(F)F [Perfluorodecanoic_acid],> 100 µM,> 100 µM,> 100 µM,> 100 µM,> 100 µM,> 100 µM,> 100 µM,> 100 µM,> 100 µM,> 100 µM,19.9 µM,> 100 µM,> 100 µM,> 100 µM,> 100 µM,> 100 µM,> 100 µM,> 100 µM,> 100 µM,> 100 µM
NS(=O)(=O)C(F)(F)C(F)(F)C(F)(F)C(F)(F)C(F)(F)C(F)(F)F [Perfluorohexanesulfonamide],> 100 µM,> 100 µM,> 100 µM,> 100 µM,> 100 µM,16.8 µM,30.8 µM,> 100 µM,> 100 µM,> 100 µM,> 100 µM,> 100 µM,> 100 µM,> 100 µM,> 100 µM,> 100 µM,> 100 µM,> 100 µM,> 100 µM,> 100 µM
O=S(=O)(O)C(F)(F)C(F)(F)C(F)(F)C(F)(F)C(F)(F)C(F)(F)F [Perfluorohexanesulfonic_acid],> 100 µM,> 100 µM,> 100 µM,> 100 µM,> 100 µM,> 100 µM,> 100 µM,> 100 µM,> 100 µM,> 100 µM,> 100 µM,> 100 µM,21.2 µM,> 100 µM,> 100 µM,> 100 µM,> 100 µM,> 100 µM,> 100 µM,> 100 µM
O=C(O)C(F)(F)C(F)(F)C(F)(F)C(F)(F)C(F)(F)F [Perfluorohexanoic_acid],> 100 µM,> 100 µM,> 100 µM,> 100 µM,> 100 µM,> 100 µM,> 100 µM,> 100 µM,> 100 µM,> 100 µM,> 100 µM,> 100 µM,> 100 µM,> 100 µM,> 100 µM,> 100 µM,> 100 µM,> 100 µM,> 100 µM,> 100 µM
O=S(=O)(O)C(F)(F)C(F)(F)C(F)(F)C(F)(F)C(F)(F)C(F)(F)C(F)(F)C(F)(F)F [Perfluorooctanesulfonic_acid],> 100 µM,> 100 µM,> 100 µM,> 100 µM,> 100 µM,> 100 µM,> 100 µM,> 100 µM,> 100 µM,> 100 µM,> 100 µM,> 100 µM,> 100 µM,> 100 µM,> 100 µM,> 100 µM,> 100 µM,> 100 µM,> 100 µM,> 100 µM
O=C(O)C(F)(F)C(F)(F)C(F)(F)C(F)(F)C(F)(F)C(F)(F)C(F)(F)F [Perfluorooctanoic_acid],> 100 µM,> 100 µM,> 100 µM,> 100 µM,> 100 µM,> 100 µM,> 100 µM,> 100 µM,> 100 µM,> 100 µM,> 100 µM,> 100 µM,> 100 µM,> 100 µM,> 100 µM,> 100 µM,> 100 µM,> 100 µM,> 100 µM,> 100 µM
O=C(O)C(F)(F)C(F)(F)C(F)(F)C(F)(F)F [Perfluoropentanoic_acid],> 100 µM,> 100 µM,> 100 µM,> 100 µM,> 100 µM,> 100 µM,> 100 µM,> 100 µM,> 100 µM,> 100 µM,> 100 µM,> 100 µM,> 100 µM,> 100 µM,> 100 µM,> 100 µM,> 100 µM,> 100 µM,> 100 µM,> 100 µM
O=C(O)C(F)(F)C(F)(F)F [Perfluoropropanoic_acid],> 100 µM,> 100 µM,> 100 µM,> 100 µM,> 100 µM,> 100 µM,> 100 µM,> 100 µM,0.307 µM,> 100 µM,> 100 µM,> 100 µM,> 100 µM,> 100 µM,> 100 µM,> 100 µM,> 100 µM,> 100 µM,> 100 µM,> 100 µM
O=C(O)C(F)(F)C(F)(F)C(F)(F)C(F)(F)C(F)(F)C(F)(F)C(F)(F)C(F)(F)C(F)(F)C(F)(F)F [Perfluoroundecanoic_acid],> 100 µM,> 100 µM,> 100 µM,> 100 µM,> 100 µM,> 100 µM,> 100 µM,> 100 µM,> 100 µM,> 100 µM,> 100 µM,17.4 µM,4.57 µM,> 100 µM,> 100 µM,> 100 µM,> 100 µM,> 100 µM,> 100 µM,> 100 µM
